Experiment [1] concerns MDA-MB-231. In words: cells. As to conditions: Homo sapiens, MDA-MB-231, 72 h.
Description: Antiproliferative activity against human MDA-MB-231 cells assessed as inhibition of cell viability incubated for 72 hrs by CCK8 assay
Experiment [2] deals with Bromodomain-containing protein 4 (Homo sapiens, UniProt O60885). In words: Inhibition of His6-tagged recombinant BRD4 BD1 domain (44 to 168 residues) (unknown origin) expressed in Escherichia coli BL21(DE3) incubated for 0.5 hrs by FITC-labeled JQ1 based competitive fluorescence polarization assay.

Regarding `Cc1nc(Nc2ncc(C(=O)Nc3c(C)cccc3Cl)s2)cc(N2CCN(CCOC(=O)[C@H](Cc3ccccc3)NC(=O)C[C@@H]3N=C(c4ccc(Cl)cc4)c4c(sc(C)c4C)-n4c(C)nnc43)CC2)n1`, half-maximal inhibition in experiment [1] (IC50) was put at 197 nM.

The molecule `Cc1nc(Nc2ncc(C(=O)Nc3c(C)cccc3Cl)s2)cc(N2CCN(C(=O)CCCCCCCNC(=O)C[C@@H]3N=C(c4ccc(Cl)cc4)c4c(sc(C)c4C)-n4c(C)nnc43)CC2)n1` registered an IC50 in experiment [1] of 757 nM. As for `Cc1nc(Nc2ncc(C(=O)Nc3c(C)cccc3Cl)s2)cc(N2CCN(C(=O)C[C@@H]3N=Cc4c(sc(C)c4C)-n4c(C)nnc43)CC2)n1`, it took 980 nM to reach half-maximal inhibition in experiment [1] (IC50). The molecule `Cc1nc(Nc2ncc(C(=O)Nc3c(C)cccc3Cl)s2)cc(N2CCN(C(=O)CCCCCNC(=O)C[C@@H]3N=C(c4ccc(Cl)cc4)c4c(sc(C)c4C)-n4c(C)nnc43)CC2)n1` yielded an IC50 in experiment [1] of 300 nM. On the same count and under the same terms, to `Cc1nc(Nc2ncc(C(=O)Nc3c(C)cccc3Cl)s2)cc(N2CCN(CCOC(=O)CNC(=O)C[C@@H]3N=C(c4ccc(Cl)cc4)c4c(sc(C)c4C)-n4c(C)nnc43)CC2)n1` belongs 22 nM. `Cc1nc(Nc2ncc(C(=O)Nc3c(C)cccc3Cl)s2)cc(N2CCN(CCOC(=O)CCOCCOCCOCCNC(=O)C[C@@H]3N=C(c4ccc(Cl)cc4)c4c(sc(C)c4C)-n4c(C)nnc43)CC2)n1` returned an IC50 in experiment [1] of 167 nM. On the same count and under the same terms, the same measure for `CSCC[C@H](NC(=O)C[C@@H]1N=C(c2ccc(Cl)cc2)c2c(sc(C)c2C)-n2c(C)nnc21)C(=O)OCCN1CCN(c2cc(Nc3ncc(C(=O)Nc4c(C)cccc4Cl)s3)nc(C)n2)CC1`: 58 nM. The same measure, in the same setting: to `Cc1nc(Nc2ncc(C(=O)Nc3c(C)cccc3Cl)s2)cc(N2CCN(CCOC(=O)C(NC(=O)C[C@@H]3N=C(c4ccc(Cl)cc4)c4c(sc(C)c4C)-n4c(C)nnc43)C(C)C)CC2)n1` (some centres undefined) belongs 172 nM.

On to `Cc1nc(Nc2ncc(C(=O)Nc3c(C)cccc3Cl)s2)cc(N2CCN(CCOC(=O)[C@@H]3CCCN3C(=O)C[C@@H]3N=C(c4ccc(Cl)cc4)c4c(sc(C)c4C)-n4c(C)nnc43)CC2)n1`, for which it took 135 nM to reach half-maximal inhibition in experiment [1] (IC50). Regarding `CC[C@H](C)[C@H](NC(=O)C[C@@H]1N=C(c2ccc(Cl)cc2)c2c(sc(C)c2C)-n2c(C)nnc21)C(=O)OCCN1CCN(c2cc(Nc3ncc(C(=O)Nc4c(C)cccc4Cl)s3)nc(C)n2)CC1`, the IC50 is more than 1000 nM in experiment [2] and 340 nM in experiment [1]. Turning to `Cc1nc(Nc2ncc(C(=O)Nc3c(C)cccc3Cl)s2)cc(N2CCN(CCOC(=O)[C@H](Cc3c[nH]c4ccccc34)NC(=O)C[C@@H]3N=C(c4ccc(Cl)cc4)c4c(sc(C)c4C)-n4c(C)nnc43)CC2)n1`, the IC50 in experiment [1] stood at 95 nM.

Turning to `Cc1nc(Nc2ncc(C(=O)Nc3c(C)cccc3Cl)s2)cc(N2CCN(CCOC(=O)CCCCCNC(=O)C[C@@H]3N=C(c4ccc(Cl)cc4)c4c(sc(C)c4C)-n4c(C)nnc43)CC2)n1`, inhibition in experiment [1] was half-maximal at 1080 nM (IC50). On the same count and under the same terms, to `Cc1nc(Nc2ncc(C(=O)Nc3c(C)cccc3Cl)s2)cc(N2CCN(C(=O)CCCNC(=O)C[C@@H]3N=C(c4ccc(Cl)cc4)c4c(sc(C)c4C)-n4c(C)nnc43)CC2)n1` belongs 1330 nM; to `Cc1nc(Nc2ncc(C(=O)Nc3c(C)cccc3Cl)s2)cc(N2CCN(CCOC(=O)C[C@@H]3N=C(c4ccc(Cl)cc4)c4c(sc(C)c4C)-n4c(C)nnc43)CC2)n1`, 52 nM.

With `Cc1nc(Nc2ncc(C(=O)Nc3c(C)cccc3Cl)s2)cc(N2CCN(C(=O)[C@@H]3CCCCN3C(=O)C[C@@H]3N=C(c4ccc(Cl)cc4)c4c(sc(C)c4C)-n4c(C)nnc43)CC2)n1`, the IC50 is more than 1000 nM in experiment [2] and 5000 nM in experiment [1].

As for `Cc1nc(Nc2ncc(C(=O)Nc3c(C)cccc3Cl)s2)cc(N2CCN(CCOC(=O)[C@H](CC(C)C)NC(=O)C[C@@H]3N=C(c4ccc(Cl)cc4)c4c(sc(C)c4C)-n4c(C)nnc43)CC2)n1`, the IC50 in experiment [1] was found to be 240 nM. Same read-out and setting: to `Cc1nc(Nc2ncc(C(=O)Nc3c(C)cccc3Cl)s2)cc(N2CCN(CCOC(=O)[C@H](CC(=O)OC(C)(C)C)NC(=O)C[C@@H]3N=C(c4ccc(Cl)cc4)c4c(sc(C)c4C)-n4c(C)nnc43)CC2)n1` belongs 122 nM.

The values are drawn from ChEMBL document CHEMBL5528017, “Design and synthesis of dual BRD4/Src inhibitors for treatment of triple-negative breast cancer” (Eur J Med Chem, 2024).
